Data set [1] concerns TLR3 signaling. The data set can be described thus: poly(I:C)-induced IL6 production by BEAS2B cells (ELISA). The data set is classed as cell-based, human. As to conditions: for Fold induction above poly(I:C) induced IL6 production (BEAS2B): BEAS2B cells, 0.13 µg/ml poly(I:C) ± peptides (5 µM), IL6 ELISA, number of experiments in parentheses, duplicate or triplicate per experiment. As to the method:
(§1) BEAS2B cells were plated at 1.5×10^4 cells/well in 96-well plates. 24 h after plating, the media was replaced with 50 µl of media containing the indicated treatments. Unless otherwise noted, poly(I:C) and LPS were added to the medium of cells to final concentrations of 0.13 µg/ml and 1 µg/ml, respectively. To activate RIG-I, 10 nM shR9 with a 5′ triphosphate was transfected into cells using Lipofectamine 2000 (Invitrogen, Carlsbad, CA). Supernatants were collected after 18-24 h and assayed for IL6 or IL8 secretion using an ELISA kit according to the manufacturer's protocol (BD Biosciences, San Diego, CA). The IL6 or IL8 level was calculated based on a standard curve fitted using a sigmoidal variable slope dose-response using software from GraphPad Prism (La Jolla, CA) and normalized to […] per well. For PBMCs, an initial 150,000 cells per well were suspended in 100 µl of RPMI medium (Invitrogen) containing 10% FBS and incubated overnight at 37°C, 5% CO2. The cells were treated with poly(I:C) at 5 µg/ml in the absence or presence of LL37 (5.6 µM) for 20–24 h. […] The supernatants were collected and frozen until analysis. Cytokine levels for IP10, IL1α and MCP1 were measured using a Milliplex assay kit (Millipore, Billerica, MA).
In general terms: ELISA stands for enzyme-linked immunosorbent assay.

In another data set the test system is BEAS2B cells. The experiment in a line: WST-1 viability of BEAS2B cells. The data set is classed as cell-based, human. As to the method:
Supplementary file pone.0026632.s002.tif: Figure S2 Effects of LL37 concentration on viability of BEAS2B cells±poly(I:C). Cell viability was assessed using the WST-1 assay (Clontech, Mountain View CA). After treatments, cells were incubated with WST-1 substrate for 4 h and absorbance was measured at 450 nm with 630 nm as reference. The readout performed in the absence of LL37 (i.e. Control) is defined as 100%. […] The graph is representative of five experiments. […] (TIF) Click here for additional data file.
For orientation: Tetrazolium dyes change colour on reduction, which living cells bring about.

The test system of data set [2] is human peripheral blood mononuclear cells (PBMCs). The data set can be described thus: Cytokine production in human PBMCs (Milliplex). The data set is classed as cell-based. As to conditions: peptide 5.6 µM. As to the method: as §1
The subject of another data set is TLR3. The data set can be described thus: TLR3 ISRE luciferase reporter assay in 293T/TLR3 cells. Format: cell-based, human. Particulars: for Fold induction above Reovirus dsRNA (293T/TLR3 reporter): 293T/TLR3 cells, reovirus genomic RNA 2 µg/ml, peptides 2 µM, ISRE luciferase reporter. As to the method: Luciferase reporter assays were performed according to the protocol of [36]. Briefly, HEK 293T cells were plated in white-walled 96-well plates at 4.4×10^4 cells/well and transfected with plasmids pUNO-huTLR3 (0.5 ng/well), pISRE-Luc (30 ng/well) and phRL-TK (5 ng/well) using Lipofectamine 2000. The cells were grown for 24 h to allow expression from the plasmids. […] After 18–24 h of incubation, luciferase activity was determined using the Dual-Glo Luciferase assay system (Promega).
On the technique in general: In a reporter assay the amount or activity of a reporter protein is the signal.

Data set [3] deals with TLR3 signaling. The experiment in a line: Viral RNA-induced IL6 production by BEAS2B cells. The data set is classed as cell-based, human. As to conditions: Sc37 2.2 µM, n>4. On the procedure: Poly(I:C) (Amersham Biosciences or GE Healthcare) was reconstituted in phosphate buffered saline (PBS; Invitrogen, Carlsbad, CA). Size-selected Poly(I:C) of 50–125 bps were generated as described previously. Fluorescently-labeled Cy5-poly(I:C) was made as described in [43]. LPS was from Sigma-Aldrich Inc. DsRNAs from Reovirus were extracted from purified virions (a kind gift from Dr. Danthi, Indiana University). […] The ssRNAs were then adjusted to a 1∶1 molar ratio in PBS and heated to 95°C for five minutes followed by slow cooling to room temperature to allow the strands to anneal to form S4 dsRNA. Plant endornavirus BPEV dsRNA was the kind gift of R. Valverde (Louisana State University, Baton Rouge, LA). Positive-strand ssRNA from hepatitis virus JFH1 was made by in vitro transcription from a cDNA of JFH-1 [63]. Plasmids encoding the wild-type TLR3, TLR4 and RIG-I were from InvivoGen (San Diego, CA). […]
BEAS2B cells were plated at 1.5×10^4 cells/well in 96-well plates. […] The IL6 or IL8 level was calculated based on a standard curve fitted using a sigmoidal variable slope dose-response using software from GraphPad Prism (La Jolla, CA) and normalized to µg/ml per well. […] Cytokine levels for IP10, IL1α and MCP1 were measured using a Milliplex assay kit (Millipore, Billerica, MA).

The nature of data set [4]: Negative-stain electron microscopy of particle dimensions. Particulars: negative-stain TEM, pH 7.4, linear regression. Format: physicochemical. As to the method:
Poly(I:C) at 50 µg/ml (low molecular weight, Invitrogen) was incubated alone or with LL37 or Sc37 (each at 10 µM) in Tris-buffered saline, pH 7.4 at 4°C for 15 min. Sample of 10 µl was placed on top of a glow-discharged 400 mesh carbon-coated copper grid (EMS). After one min incubation at RT, the drop was removed by absorption onto filter paper. The grids containing the samples were then stained with 2% uranium acetate for 20 s. Excess stain was removed and the grids were air-dried for 15 min. Micrographs of the grids were taken with JEOL transmission microscope at 80 kV, using 40,000x magnification. The micrographs were collected and measurement of length and width of particles were calculated using EMAN software as described by. Data points for each treatment were fitted using linear regression and the slope of each line was calculated using GraphPad Prism software.

In the next data set the test system is TLR4 signaling. The experiment in a line: LPS-induced IL6 production by BEAS2B cells (ELISA). The data set is classed as cell-based, human. As to conditions: LPS 1 µg/ml, T3/T4 0.6–10 µM, Tat and Arg(9) 10 µM. On the procedure:
as §1

`O=C(O[C@@H]1Cc2c(O)cc(O)cc2O[C@@H]1c1cc(O)c(O)c(O)c1)c1cc(O)c(O)c(O)c1` [EGCG]: the “Effect on the Tat peptide's enhancement of IL6 production” value with TLR3 signaling [1] (BEAS2B, data not shown) is given as “did not affect”.
As for `CC[C@H](C)[C@H](NC(=O)[C@H](CCCCN)NC(=O)[C@H](CCC(=O)O)NC(=O)[C@H](CCCCN)NC(=O)[C@H](CO)NC(=O)[C@H](CCCCN)NC(=O)[C@H](CCCNC(=N)N)NC(=O)[C@H](Cc1ccccc1)NC(=O)[C@H](Cc1ccccc1)NC(=O)[C@H](CC(=O)O)NC(=O)CNC(=O)[C@H](CC(C)C)NC(=O)[C@@H](N)CC(C)C)C(=O)NCC(=O)N[C@@H](CCCCN)C(=O)N[C@@H](CCC(=O)O)C(=O)N[C@@H](Cc1ccccc1)C(=O)N[C@@H](CCCCN)C(=O)N[C@@H](CCCNC(=N)N)C(=O)N[C@H](C(=O)N[C@H](C(=O)N[C@@H](CCC(N)=O)C(=O)N[C@@H](CCCNC(=N)N)C(=O)N[C@H](C(=O)N[C@@H](CCCCN)C(=O)N[C@@H](CC(=O)O)C(=O)N[C@@H](Cc1ccccc1)C(=O)N[C@@H](CC(C)C)C(=O)N[C@@H](CCCNC(=N)N)C(=O)N[C@@H](CC(N)=O)C(=O)N[C@@H](CC(C)C)C(=O)N[C@H](C(=O)N1CCC[C@H]1C(=O)N[C@@H](CCCNC(=N)N)C(=O)N[C@H](C(=O)N[C@@H](CCC(=O)O)C(=O)N[C@@H](CO)C(=O)O)[C@@H](C)O)C(C)C)[C@@H](C)CC)C(C)C)[C@@H](C)CC` [LL37], in the data set on BEAS2B cells (BEAS2B, WST-1, LL37 3 µM), the “Toxicity in the presence of poly(I:C)” value is “did not show significant toxicity”. Further, the “Effect on cell viability in the absence of poly(I:C)” value in the data set on BEAS2B cells (BEAS2B, WST-1, LL37 up to 5 µM, representative of five experiments) is on record as “no effect on cell viability”. Further, the “Effect on BEAS2B cell viability” value in the data set with BEAS2B cells (at or less than 3 µM, by itself or in the presence of poly(I:C), WST-1, n = 5) is on record as “minimal effects”. Also, the “Cytotoxicity judged by morphology of PBMCs” value in data set [2] (data not shown) is listed as “no obvious cytotoxicity”.
Take `COc1cc2ncnc(Nc3cccc(Cl)c3)c2cc1OC` [tyrphostin AG 1478]: the “Effect on IL6 production induced by poly(I:C) or poly(I:C) in combination with LL37” value in the data set on TLR3 signaling [1] (BEAS2B, unpublished observations) is recorded as “had no effect”.
As for “LLGNFFRKSKQKIGKQFKRIVQRIKNFFRNLVPRTQS [Sc37]”, the “Additional increase of reporter levels above that of the Reovirus dsRNAs” value in the data set with TLR3 (293T/TLR3, peptide 2 µM, Reovirus dsRNA, LL37 n = 8, Sc37 n = 4) is “did not affect reporter activity”. The “Fold induction above Reovirus dsRNA (293T/TLR3 reporter)” value in the data set on TLR3 was 1.0±0.03 (9) fold. For the same compound, the “Effect on IL6 production by the viral RNAs tested” value with TLR3 signaling [3] is reported as “did not increase IL6 production”. Moreover, the “Fold induction above poly(I:C) induced IL6 production (BEAS2B)” value with TLR3 signaling [1] is on record as 1.05±0.11 (6) fold. In addition, the “Enhancement of poly(I:C)-induced IL6 levels compared to poly(I:C) alone” value with TLR3 signaling [1] (BEAS2B, peptide 2.2 µM, poly(I:C) 0.13 µg/ml, 20 h, LL37 n = 23, Sc37 n = 7) was “did not enhance IL6 production”. The “Slope of best fit line of particle lengths and widths” value in data set [4] is on record as 0.8 ± 0.05. In data set [2] (poly(I:C) 5 µg/ml, 24 h, n = 3), the “Increase of IL1α, MCP1 and IP10 levels with poly(I:C) above poly(I:C) or peptide alone” value is listed as “did not significantly increase”.
Turning to “NAKTRRHERRRKLAIER [P22N(14-30), arginine-containing peptide]”, in the data set with TLR3, the “Fold induction above Reovirus dsRNA (293T/TLR3 reporter)” value is 1.3±0.14 (4) fold. Besides, the “Fold induction above poly(I:C) induced IL6 production (BEAS2B)” value in the data set on TLR3 signaling [1] (5 µM) was 1.0±0 (3) fold; in the data set on TLR3 signaling [1] (listed as P22(14-30), 5 µM), “did not enhance TLR3 signaling”.
As for “RQIKIWFQNRRMKWKK [Penetrin, peptide derived from the protein antennapedia; cell-penetrating peptide]”, the “Fold induction above Reovirus dsRNA (293T/TLR3 reporter)” value with TLR3 is 1.1±0.05 (4) fold. Also, in the data set on TLR3 signaling [1], the “Fold induction above poly(I:C) induced IL6 production (BEAS2B)” value is listed as 2.9±1.2 (3) fold.
Regarding “RRRRRRRRR [Arg(9), cell-penetrating peptide of nine arginines]”, in the data set on TLR3, the “Fold induction above Reovirus dsRNA (293T/TLR3 reporter)” value was 1.5±0.17 (4) fold. Also, in the data set on TLR4 signaling, the “Effect on LPS-induced IL6 production” value is “no effect on LPS signaling”.
TRAQRRAAARGGGVVIAC [Peptide 3]: the “Fold induction above Reovirus dsRNA (293T/TLR3 reporter)” value in the data set with TLR3 is listed as 1 fold. Also, the “Fold induction above poly(I:C) induced IL6 production (BEAS2B)” value with TLR3 signaling [1] is reported as 3±0.62 (8) fold.
For the compound “TRAQRRAAARGVQIVYKC [T4, peptide derived from the Brome mosaic virus (BMV) capsid]”, the “Fold induction above Reovirus dsRNA (293T/TLR3 reporter)” value with TLR3 is 1 fold. Besides, in the data set on TLR4 signaling, the “Effect on LPS-induced IL6 production” value is listed as “not affected”. Further, in the data set on TLR3 signaling [1], the “Fold induction above poly(I:C) induced IL6 production (BEAS2B)” value is given as 5.6±1.4 (6) fold.
On the same counts, the results for “TRAQRRAAARRNRACCPGCCS [T3, peptide derived from the Brome mosaic virus (BMV) capsid]” are 1.3±0.08 (4) fold, “not affected” and 3±0.4 (8) fold.
For “TSAQSSAAASSNSACCPGCCS [T3Ser, variant of the peptide T3 that had the arginines substituted with serines]”, the “Fold induction above Reovirus dsRNA (293T/TLR3 reporter)” value in the data set on TLR3 is 1 fold. Besides, the “Fold induction above poly(I:C) induced IL6 production (BEAS2B)” value is reported as 0.8±0.12 (4) fold in the data set with TLR3 signaling [1] (5 µM) and “lost the ability to enhance IL6 production” in the data set on TLR3 signaling [1] (listed as T3ser, 5 µM).
Consider “YGRKKRRQRRR [Tat47-57, Tat peptide that is rich in basic residues; cell-penetrating peptide]”, for which the “Fold induction above Reovirus dsRNA (293T/TLR3 reporter)” value in the data set with TLR3 was 1.3±0.19 (3) fold. Further, the “Effect on LPS-induced IL6 production” value in the data set on TLR4 signaling is “no effect on LPS signaling”. For the same compound, the “Fold induction above poly(I:C) induced IL6 production (BEAS2B)” value in the data set with TLR3 signaling [1] (5 µM) is 3.7±0.43 (10) fold; with TLR3 signaling [1] (listed as Tat peptide, 5 µM) it was “at least 2.9 fold”.
Turning to mCRAMP, the “Enhancement of IL6 production in response to poly(I:C)” value in the data set on TLR3 signaling [1] (BEAS2B, KR18-37 4 µM, mCRAMP 5 µM, poly(I:C) 0.13 µg/ml, 24 h, n = 3) is recorded as “unable to enhance IL6 production”.
For the compound poly(I:C), in the data set on TLR3 signaling [1] (BEAS2B, poly(I:C) added to medium, n = 12), the “IL6 levels above basal levels” value stood at 15 ± 2.2 fold. Also, the “Slope of best fit line of particle lengths and widths” value in data set [4] was found to be 0.53 ± 0.12.

These data come from publication PMC3198786, “LL37 and Cationic Peptides Enhance TLR3 Signaling by Viral Double-stranded RNAs” (PLoS ONE, 2011).
